From patent US20200140383A1, “2-(4-CHLOROPHENOXY)-N-((1 -(2-(4-CHLOROPHENOXY)ETHYNAZETIDIN-3-YL)METHYL)ACETAMIDE DERIVATIVES AND RELATED COMPOUNDS AS ATF4 INHIBITORS FOR TREATING CANCER AND OTHER DISEASES” (GlaxoSmithKline Intellectual Property Development Limited, priority 2017, published 2020)
Where “and” joins values, the source holds several entries; their conditions need not be identical. Equal entries are not always repeated.

Test system: ATF4 translation (SH-SY5Y-ATF4-NanoLuc cells)
Test: ATF4 cell based assay (ATF4 5'-UTR NanoLuc luciferase reporter, Thapsigargin induced stress)
Settings: Thapsigargin 200-300 nM for 14-18 hours, average of two or more experimental runs, read-out: average ATF4 pathway inhibitory activity (IC50)
From the text: The ATF4 reporter assay measures the effect of Thapsigargin induced cellular stress on ATF4 expression. For this reporter assay, a stable cell line was created by transfecting SH-SY5Y cells with a plasmid containing the NanoLuc® luciferase gene fused to the 5′-UTR of ATF4, under the control of the CMV promoter. The ATF4 5′-UTR contains two open reading frames which mediate the cellular stress-dependent translation of the reporter gene. Clones stably expressing the reporter construct were isolated and selected based on the luminescence response to thapsigargin and inhibition of this signal by test compounds. Briefly, SH-SY5Y-ATF4-NanoLuc cells were challenged with Thapsigargin for 14-18 hours to determine the stress effect with or without test compounds.
Cells were propagated in growth media consisting of 90% DMEM F12 (InVitrogen #11320-033), 10% Fetal Bovine Serum (Gibco #10438-026), 5 mM Glutamax (Gibco #35050-061), 5 mM Hepes, (Gibco #15630-080), and 0.5 mg/ml Geneticin (Gibco #10131-027). Cells were prepared for the assay by removing all media from cells, washing the plated cells with phosphate buffered saline, and detached by adding a solution comprised of 10% Tryple express solution (InVitrogen12604-021) and 90% enzyme-free cell dissociation buffer HANKS base (Gibco 13150-016). The trypsin was deactivated by adding assay media comprised of 90% phenol-red free DMEM F12 (InVitrogen, 11039), 10% Fetal Bovine Serum (Gibco #10438-026), (5 mM Glutamax (Gibco #35050-061), 5 mM Hepes, (Gibco #15630-080), and 0.5 mg/ml Geneticin (Gibco #10131-027). Suspended cells were spun down at 300 g for 5 min, the supernatant was removed and the cell pellet was suspended in warm media (30-37° C.) comprised as above but without 10% Fetal Bovine Serum to a concentration of 1e6 cells/mi.
Assay plates were prepared by adding 250 nL of compound stock solution in 100% DMSO to each well, followed by dispensing 20 microliters/well cell suspension to deliver 15-20 k cell/well. Cells were incubated for 1 hour at 37° C. Then, 5 μL of 1.5 μM or 1 μM of Thapsigargin (final concentration: 200-300 nM) was added to each well of cells. Assay plates containing cells were incubated for 14-18 hours at 37° C.
The measurement of luciferase produced by the ATF4 constructs was measured as follows. Aliquots of the Nano-Glo reagent (Nano-Glo® Luciferase Assay Substrate, Promega, N113, Nano-Glo® Luciferase Assay Buffer, Promega, N112 (parts of Nano-Glo® Luciferase Assay System, N1150) were brought to room temperature, the substrate and buffer were mixed according to manufacturer's instructions. The cell plates were equilibrated to room temperature. 25 microliters/well of the mixed Nano-Glo reagent were dispensed into assay wells and pulse spun to settle contents and the plate was sealed with film. The plates were incubated at room temperature for 1 hour before detecting luminescence on an EnVision® plate reader.

| SMILES | IC50 |
| --- | --- |
| O=C(COc1ccc(Cl)cc1)NCC1CN(C(=O)C2CC2c2ccc(Cl)cc2)C1 (centres unmarked) [Example 3, 2-(4-chlorophenoxy)-N-((1-(2-(4-chlorophenyl)cyclopropane-1-carbonyl)azetidin-3-yl)methyl)acetamide] | 100 to 1000 nM |
| O=C(COc1ccc(Cl)cc1)NCCC1CN(C(=O)COc2ccc(Cl)cc2)C1 [Example 4, 2-(4-chlorophenoxy)-N-(2-(1-(2-(4-chlorophenoxy)acetyl)azetidin-3-yl)ethyl)acetamide] | 100 to 1000 nM |
| CC(C)(C)OCC(=O)N1CC(CNC(=O)COc2ccc(Cl)cc2)C1 [Example 5, N-((1-(2-(tert-butoxy)acetyl)azetidin-3-yl)methyl)-2-(4-chlorophenoxy)acetamide] | 1000 to 8000 nM |
| O=C(COc1ccc(Cl)cc1)NCC1(F)CN(CCOc2ccc(Cl)cc2)C1 [Example 7, 2-(4-chlorophenoxy)-N-((1-(2-(4-chlorophenoxy)ethyl)-3-fluoroazetidin-3-yl)methyl)acetamide] | 1000 to 8000 nM |
| O=C(COc1ccc(Cl)cc1)NCC1(F)CN(CCCOc2ccc(Cl)cc2)C1 [Example 8, 2-(4-chlorophenoxy)-N-((1-(3-(4-chlorophenoxy)propyl)-3-fluoroazetidin-3-yl)methyl)acetamide] | 100 to 1000 nM |
| O=C(COc1ccc(Cl)cc1)NC1CN(CCCOc2ccc(Cl)cc2)C1 [Example 9, 2-(4-chlorophenoxy)-N-(1-(3-(4-chlorophenoxy)propyl)azetidin-3-yl)acetamide] | 100 to 1000 nM and 106 nM |
| O=C(COc1ccc(Cl)cc1)NCC1CN(CCOc2ccc(Cl)cc2)C1 [Example 11, 2-(4-chlorophenoxy)-N-((1-(2-(4-chlorophenoxy)ethyl)azetidin-3-yl)methyl)acetamide] | < 100 nM and 78 nM |
| O=C(COc1ccc(Cl)cc1)NCCC1CN(CCCc2ccc(Cl)cc2)C1 [Example 15, 2-(4-chlorophenoxy)-N-(2-(1-(3-(4-chlorophenyl)propyl)azetidin-3-yl)ethyl)acetamide] | 100 to 1000 nM |
| O=C(COc1ccc(Cl)cc1)NCC1CN(C(=O)OCCc2ccc(Cl)cc2)C1 [Example 16, 4-chlorophenethyl 3-((2-(4-chlorophenoxy)acetamido)methyl)azetidine-1-carboxylate] | 100 to 1000 nM |
| CC(C)(C)COC(=O)N1CC(CNC(=O)COc2ccc(Cl)cc2)C1 [Example 19, neopentyl 3-((2-(4-chlorophenoxy)acetamido)methyl)azetidine-1-carboxylate] | 1000 to 8000 nM and 1340 nM |
| O=C(COc1ccc(Cl)cc1)NCC1CN(C(=O)NCc2ccc(Cl)cc2)C1 [Example 20, N-(4-chlorobenzyl)-3-((2-(4-chlorophenoxy)acetamido)methyl)azetidine-1-carboxamide] | 1000 to 8000 nM |
| O=C(COc1ccc(Cl)cc1)NCC1CN(C(CCOc2ccc(Cl)cc2)C(=O)O)C1 (centres unmarked) [Example 21, 4-(4-chlorophenoxy)-2-(3-((2-(4-chlorophenoxy)acetamido)methyl)azetidin-1-yl) butanoic acid] | 100 to 1000 nM |
| COc1ccc(N2CC(CNC(=O)COc3ccc(Cl)cc3)C2)cc1 [Example 22, 2-(4-chlorophenoxy)-N-((1-(4-methoxyphenyl)azetidin-3-yl)methyl)acetamide] | 1000 to 8000 nM |
| O=C(COc1ccc(Cl)cc1)NCC1CN(c2cccnc2)C1 [Example 23, 2-(4-chlorophenoxy)-N-((1-(pyridin-3-yl)azetidin-3-yl)methyl)acetamide] | 1000 to 8000 nM |

Further lines, results first:

| IC50 | SMILES |
| --- | --- |
| 100 to 1000 nM | O=C(COc1ccc(Cl)cc1)NCC1CN(C(=O)COc2ccc(Cl)cc2)C1 [Example 1, 2-(4-chlorophenoxy)-N-((1-(2-(4-chlorophenoxy)acetyl)azetidin-3-yl)methyl)acetamide] |
| 100 to 1000 nM | O=C(COc1ccc(Cl)cc1)NCC1CN(C(=O)CCc2ccc(Cl)cc2)C1 [Example 2, 2-(4-chlorophenoxy)-N-((1-(3-(4-chlorophenyl)propanoyl)azetidin-3-yl)methyl)acetamide] |
| < 100 nM | O=C(COc1ccc(Cl)cc1)NCC1CN(CCCOc2ccc(Cl)cc2)C1 [Example 6, 2-(4-chlorophenoxy)-N-((1-(3-(4-chlorophenoxy)propyl)azetidin-3-yl)methyl)acetamide] |
| < 100 nM | O=C(COc1ccc(Cl)cc1)NCC1(O)CN(CCCOc2ccc(Cl)cc2)C1 [Example 10, 2-(4-chlorophenoxy)-N-((1-(3-(4-chlorophenoxy)propyl)-3-hydroxyazetidin-3-yl)methyl)acetamide] |
| < 100 nM | O=C(COc1ccc(Cl)cc1)NCCC1CN(CCOc2ccc(Cl)cc2)C1 [Example 12, 2-(4-chlorophenoxy)-N-(2-(1-(2-(4-chlorophenoxy)ethyl)azetidin-3-yl)ethyl)acetamide] |
| < 100 nM | O=C(NCC1CN(CCCOc2ccc(Cl)cc2)C1)C1CCc2cc(Cl)ccc2O1 (centres unmarked) [Example 13, 6-chloro-N-((1-(3-(4-chlorophenoxy)propyl)azetidin-3-yl)methyl)chromane-2-carboxamide] |
| < 100 nM | O=C(COc1ccc(Cl)cc1)NCC1CN(CCCc2ccc(Cl)cc2)C1 [Example 14, 2-(4-chlorophenoxy)-N-((1-(3-(4-chlorophenyl)propyl)azetidin-3-yl)methyl)acetamide] |
| < 100 nM | O=C(COc1ccc(Cl)cc1)NCC1CN(C(=O)OCCOc2ccc(Cl)cc2)C1 [Example 17, 2-(4-chlorophenoxy)ethyl 3-((2-(4-chlorophenoxy)acetamido)methyl)azetidine-1-carboxylate] |
| < 100 nM | O=C(COc1ccc(Cl)cc1)NCC1CN(C(=O)OCc2ccc(Cl)cc2)C1 [Example 18, 4-chlorobenzyl 3-((2-(4-chlorophenoxy)acetamido)methyl)azetidine-1-carboxylate] |
